Measured values reported in patent US20190105260A1, “COMPOSITIONS AND METHODS TO PROMOTE WOUND HEALING” (The Regents of the University of California, priority 2016, published 2019).
Each block holds one molecule with its values, some of them ahead of it.

Tests used:
[1] = system: Db/Db female mice, diabetic model of impaired wound healing; test: In vivo splinted full-thickness excisional wound model, re-epithelialization analysis; parameters: species or system mouse; conditions: for re-epithelialization compared to PEG vehicle control: daily topical 0.2% fluoxetine or 0.01% timolol, day 12; for re-epithelialization vs vehicle control: daily topical 0.2% fluoxetine or 2% serotonin in 5% polyethylene glycol, day 10
Description: Panel B: Histomorphometric analysis of wounds. Representative histology sections for each group were chosen. Following euthanasia of animals, wounds were excised, biopsied and bisected. Wound tissue was fixed in paraformaldehyde for 12-16 hours and then paraffin embedded. Serial 5 μm sections were obtained from the center of the wound and the section with the largest wound bed (as defined by distance between hair follicles) was stained with hemotoxylin and eosin. Images were taken using 10× objective on a Keyance microscope. Panels C-D: Re-epithelialization was determined on sections created as in panel B. Image J analysis software was utilized to divide the re-epithelialized tissue (distance from hair follicle to remaining wound) by the entire original wound surface (as defined as distance between hair follicles). Panel D provides the distribution of data depicted in Panel C. P values were derived using a 2-tailed t-test.
13 week-old Db/Db female mice underwent full-thickness excisional biopsies with 8 mm punch biopsies. Wounds were splinted to prevent contraction. At day 12, animals were sacrificed and wounds were harvested to assess re-epithelialization. Representative histology sections for each group were chosen. Following euthanasia of animals, wounds were excised, biopsied and bisected. Wound tissue was fixed in paraformaldehyde for 12-16 hours and then paraffin embedded. Serial […] sections were obtained from the center of the wound and the section with the largest wound bed (as defined by distance between subcutaneous fat tissue) was stained with hemotoxylin and eosin. Images were taken using 10× objective on a Keyance microscope. (A) Re-epithelialization was determined on sections created. Image J analysis software was utilized to divide the re-epithelialized tissue by the entire original wound surface. (B) Percent of wounds at different stages of re-epithelialization was quantified. Data represented as Mean±SEM. P values were derived using a 2-tailed t-test. N=5/group.
13 week-old Db/Db female mice underwent full-thickness excisional wounding with 8 mm punch biopsy tool. All wounds were splinted to prevent contraction. […] At day 11, animals were sacrificed and wounds were harvested to assess re-epithelialization. Representative histology sections for each group were chosen. Following euthanasia of animals, wounds were excised, biopsied and bisected. Wound tissue was fixed in paraformaldehyde for 12-16 hours and then paraffin embedded. Serial […] sections were obtained from the center of the wound and the section with the largest wound bed (as defined by distance between subcutaneous fat tissue) was stained with hemotoxylin and eosin. Images were taken using 10× objective on a Keyance microscope. Re-epithelialization was determined on sections created. Image J analysis software was utilized to divide the re-epithelialized tissue by the entire original wound surface. Data represented as Mean±SEM. N=5/group.
Diabetic status (blood glucose >300 mg/dl) was confirmed in female Db/Db mice at age 11 weeks. At age 13 weeks, mice underwent hair removal and synchronization of follicle cycling through depilation and shaving. Synchronization was confirmed based on lack of skin pigmentation in included mice. 1 day after synchronization, 13-week-old Db/Db female mice underwent full-thickness excisional wounding using a splinted model as described. Briefly, 8 mm punch biopsies were used to make full-thickness excisional wounds. […]

[2] = system: bone marrow-derived macrophages (BMDMs), M2 polarization; test: In vitro macrophage polarization (RT-PCR, flow cytometry); type: cell-based, mouse; conditions: for effect on fluoxetine-enhanced M2 polarization (CD206+ cells, flow cytometry): added to fluoxetine, 1 μM Ketanserin, 100 nM NAN-190, 24 hours
Description: Bone marrow described macrophages from wild-type C57/B6J mice were harvested and cultured under polarizing conditions towards M0 (no polarization; normal culture medium), M1 (using LPS and IFNγ) or M2 (using IL-4 and IL-13). […] M2 activation status was assessed using RT-PCR (normalized to HSP90) for CD206, Ym-1 and Arg-1. M1 activation status was assessed using TNFα (A, B). C: At day 7 of macrophage maturation, adherent bone marrow derived monocytes in culture were identified with macrophage markers (CD11b and F4/80) using flow cytometry. After 24 hours, CD206 expression was identified in treated group (C). Results were then quantified and reported (D). Data presented as average±SEM. ** p<0.01.
Wild type C57BL/6 male and female mice were used. Bone marrow-derived (BMD) cells were isolated from mouse femurs and tibias. ACK solution (Thermo Fisher catalog 50-983-220) was used for 5 minutes at 37° C. to lyse red blood cells. BMD macrophages (BMDMs) were matured with (20 ng/mL) M-CSF (R&D) for 7 days. On day 7, BMDM phenotype was confirmed with flow cytometry by CD11b and F4/80 markers (Biolegend). Following maturation, BMDMs were either polarized towards M1 lineage with 10 ng/ml LPS (Sigma Aldrich) and 100 ng/ml IFN-g (R&D) or M2 lineage with 20 ng/ml IL-4 (PeproTech) and IL-13 (R&D) in cRPMI (1×RPMI (Cellgro), 10% FBS, 1× sodium pyruvate (GIBCO), 1× penicillin/streptomycin (GIBCO) at 37° C. for 24 hours. Non-polarized BMDMs and M1-polarized BMDMs were used as experimental controls for polarization procedure. M2-polarized BMDMs were co-treated with either PBS or FLX and/or 100 nM NAN-190 or 1 μM Ketanserin. Cells were either collected after 4 hours by scraping and stored in buffer RLT (Qiagen) at −80° C. or were read with flow cytometry after 24 hours and data were appropriately compensated and analyzed by FlowJo.
RT-PCR was performed using PowerUp SYBR Green Master Mix (Thermo/Applied Biosystems). Data was analyzed using the ΔΔCt method and normalized using geometric mean of the housekeeping genes (GAPDH, Hsp90, 18S rRNA). Fold change is shown relative to control groups.

NF-kB in keratinocytes = test: Multiplex assay, NF-kB; type: cell-based, human; conditions: 10 μM 5-HT for 6 hours, NHKs
Description: (§1) FIGS. 2A-C illustrate that serotonin (5-HT) increases keratinocyte migratory speed and re-epithelialization in a scratch wound ex vivo model, likely through the ERK-STAT3-NFkB pathway.
(§2) NHKs from 3 different donors were cultured in 100 mm dishes until 80% confluent and treated with 10 μM 5-HT for 6 hours. Protein lysates were collected and quantified with Bradford assays before proceeding according to manufacturer's protocol (Millipore Multiplex Assay (MILLIPLEX® MAP 48-680MAG). Results were normalized to total protein levels quantified separately by Bradford protein assays.

[3] = system: phosphorylated ERK in keratinocytes; test: Multiplex assay, phosphorylated ERK; type: cell-based, human; conditions: 10 μM 5-HT for 6 hours, NHKs
Description: as §1, §2

[4] = system: CFSE-labeled CD4+CD25- effector T cells stimulated with CD11c+ dendritic cells; test: Mixed lymphocyte reaction; type: cell-based, mouse; conditions: 1 μM fluoxetine, 10 μM serotonin, 3,000 AMSC or 1,500 BMSC added to co-cultures
Description: Panel A: In a mixed lymphocyte reaction, 250,000 Carboxyfluorescein succinimidyl ester (CFSE)-labeled CD4+CD25-effector T cells were cultured with 100,000 CD11c+ dendritic cells as antigen. […] Proliferation was measured based on CFSE dilution. […] P values were derived using a 2-tailed t-test.
Mixed lymphocyte reactions were performed as described. Briefly, allogenic effector B6 CF SE-labeled T cells were incubated in a 96-well plate (250,000/well) with CD11c+ Bal/b APC (100,000/well) that were purified from bulk splenocytes on anti-CD11c-coupled Milteny microbeads. […] Proliferation was measured based on CFSE dilution.

BMSC [5] = test: BMSC migration assay; type: cell-based; conditions: 10 uM 5HT vs untreated BMSC; BMSC pooled from 3 donors
[6] = system: Neonatal Human Keratinocytes (NHKs); test: Scratch wound assay; type: cell-based
Description: as §1
Neonatal Human Keratinocytes (NHKs) were either non-treated (Control) or treated with 5-HT (1 μM) and FLX (0.01 μM, 0.1 μM, 1 μM) and/or 5HTR1A blocker (100 nM NAN190) and/or 5HTR2A antagonist (1 μM Ketanserin or KET). NHKs from at least 3 different donors were plated at fully confluent density and treated with Mitomycin to prevent proliferation. P-200 tips were used to induce a scratch wound in the middle of each well and time-lapse images were recorded every 30 minutes for 6 hours and % healed were calculated as previously described. Data represented as Mean±SEM. Student t-tests were used for statistical analysis. *, p<0.05; **, p<0.01; ***, p<0.001.
NHKs were isolated and cultured from human foreskin as previously reported. […]
NHKs from 3 different donors were plated on collagen-coated 12-well plates at fully confluent density and treated with Mitomycin C to prevent proliferation. P-200 tips were used to induce a scratch wound in the middle of each well and time-lapse images were recorded every 30 minutes for 6 hours and % healed were calculated as following: % Healed=([(SA)]_(t=0)−[(SA)]_(t=6))/[(SA)]_(t=0) which SA represents surface area of the scratch wound gap at 0-hour (t=0) or 6-hour time point. […]

[7] = system: phosphorylated STAT3 in keratinocytes; test: Multiplex assay, phosphorylated STAT3; type: cell-based, human; conditions: 10 μM 5-HT for 6 hours, NHKs
Description: as §1, §2

BMSC [8] = test: BMSC proliferation in vitro; type: cell-based; conditions: 10 uM 5HT vs untreated BMSC; BMSC pooled from 3 donors
[9] = system: wound beds of Db/Db female mice; test: Immunohistochemistry of wound beds (Gr-1, F4/80, CD31); type: in vivo, mouse; conditions: topical treatment, day 10
Description: 13 week-old Db/Db female mice underwent full-thickness excisional biopsies with 8 mm punch biopsies. Wounds were splinted to prevent contraction. At day 10, animals were sacrificed and wounds were harvested to assess re-epithelialization. Representative histology sections for each group were chosen. Following euthanasia of animals, wounds were excised, biopsied and bisected. Wound tissue was fixed in paraformaldehyde for 12-16 hours and then paraffin embedded. Serial […] sections were obtained from the center of the wound and the section with the largest wound bed (as defined by distance between subcutaneous fat tissue—indicated by yellow arrows in figure). Images were taken using 10× objective on a Keyance microscope. Sections were stained with antibody to Gr-1 (A), CD31 (B) or F4/80 (C) to assess neutrophil, endothelial cell or macrophage numbers, respectively, in the wound beds. Wound bed area was outlined in Spectrum software (demarcated by yellow arrows in this figure), which then calculated the number of positive cells. Data is presented as positive cells/mm^2. P values were derived using a 1-tailed t-test. *, p<0.05; **, p<0.01. N=5/group.
Following euthanasia, wound tissue was harvested and processed as described above. Antibodies: F4/80 (Serotec, now BioRad MCA497A488, clone CI:A3-1, 1:100 dilution); GR-1 (Biolegend, catalog number 108402, clone RB6-8C5, 1:200 dilution); CD31 (Santa Cruz, catalog number sc1506, clone M20, 1:1800 dilution). Wound beds were analyzed in Spectrum software (UC Davis). Wound beds were outlined based on subcutaneous fat presence and positive cells were calculated as #/mm^2 of wound bed.

[10] = system: HaCaT human keratinocyte cell line; test: Single cell migration assay; type: cell-based; conditions: HaCaT cells
From the text: as §1

[11] = Serotonin degradation in culture (ELISA); type: physicochemical; conditions: after 24 hours in culture, in both the presence and absence of BMSC
From the text: Serotonin is rapidly degraded when exposed to in vitro in culture conditions.

[12] = cited from earlier work
[13] = 100 nM fluoxetine, after 4 hours of polarization

SMILES: CC(C)(C)NC[C@H](O)COc1nsnc1N1CCOCC1 [timolol]
re-epithelialization compared to PEG vehicle control [1]: increased

SMILES: O=C(c1ccc(F)cc1)C1CCN(CCn2c(=O)[nH]c3ccccc3c2=O)CC1 [Ketanserin]
effect on fluoxetine-enhanced M2 polarization (CD206+ cells, flow cytometry) [2]: reversed

serotonin in culture lost [11]: Over 50%
SMILES: NCCc1c[nH]c2ccc(O)cc12 [serotonin]
NF-kB protein (NF-kB in keratinocytes): increase
phosphorylation of ERK [3]: significantly increased
T cell proliferation (CFSE dilution) [4]: significantly inhibit
BMSC migratory speed (BMSC [5]): significantly increased
migration of keratinocytes ([6]; primary keratinocytes from 3 donors, 6-hour time point, mitomycin-treated): enhance migration of keratinocytes in a dose-dependent manner
phosphorylation of STAT3 [7]: significantly increased
BMSC proliferation (BMSC [8]): significantly increased
angiogenesis (CD31+ endothelial cells) in wound beds vs vehicle [9]: increasing
macrophage (F4/80+ cells) numbers in wound beds vs vehicle [9]: increasing
neutrophils (Gr-1+ cells) in wound beds vs vehicle [9]: significantly fewer
keratinocyte migration (single cell migration) [10]: increases
re-epithelialization vs vehicle control [1]: significantly improved

SMILES: CNCCC(Oc1ccc(C(F)(F)F)cc1)c1ccccc1 (centres unmarked) [fluoxetine]
T cell proliferation (CFSE dilution) [4]: significantly inhibit
Arg-1 transcripts (RT-PCR) [2, 13]: significant increased
CD206 transcripts (RT-PCR) [2, 13]: significant increased
Ym-1 transcripts (RT-PCR) [2, 13]: significant increased
M2 polarization of naïve macrophages (CD206+ cells, flow cytometry) ([2]; after 24 hours of M2 polarization): enhanced
migratory speed of human keratinocytes ([6]; fluoxetine (0.01-1 μM) in the presence of serotonin (1 μM), 6 hours): significantly increased
angiogenesis (CD31+ endothelial cells) in wound beds vs vehicle [9]: significantly increased
macrophage (F4/80+ cells) numbers in wound beds vs vehicle [9]: significantly increased
neutrophils (Gr-1+ cells) in wound beds vs vehicle [9]: significantly fewer
re-epithelialization compared to PEG vehicle control [1]: increased
re-epithelialization vs vehicle control [1]: significantly improved
increase in re-epithelialization compared to INTEGRA alone ([1]; day 11, all wounds with INTEGRA matrix, 1 μM fluoxetine daily, 250,000 MSC): 17%

SMILES: CC(C)(C)NCC(O)COc1cccc2c1CC(O)C(O)C2 (centres unmarked) [Nadolol]
lipid solubility [12]: low

SMILES: COc1ccccc1N1CCN(CCCCN2C(=O)c3ccccc3C2=O)CC1 [NAN190]
effect on fluoxetine-enhanced M2 polarization (CD206+ cells, flow cytometry) [2]: reversed
